Like-named read-outs stand apart in the source and are kept apart here.
Molecular target: human Plasma Kallikrein (Homo sapiens (Human), UniProt P03952)
Assay: In vitro enzyme inhibition of human plasma kallikrein (PFR-AMC cleavage)
Type: biochemical
Protocol: The ability of the compounds disclosed herein to inhibit human plasma kallikrein activity was quantified according to the procedures below.
A 10 mM solution of the test compound was made in DMSO. […] A control tube containing only DMSO is included. 16 μL of each compound test solution was combined with 384 μL of assay buffer (50 mM Tris-HCl pH 7.5, 150 mM NaCl, 0.01% Triton X-100) to yield a “4× test compound buffer stock”.
These solutions are hereby referred to as 4×hPK and 2×PFR-AMC, respectively.
50 μL was removed from this mixture and placed into duplicate wells on a Microfluor 1Black U-bottom microtiter plate (Thermo Scientific). This plate was incubated for 5 minutes at 37° C. To each well, 50 μL of pre-warmed 2×PFR-AMC was added to start the enzymatic reaction. Cleavage of PFR-AMC was monitored in a Biotek Synergy H4 reader set at 37° C. Readings are taken every 43 seconds for 1 hour. […] The IC50 is calculated using the Gen5 (Biotek Instruments).
The ability of the compounds in Table 3 to inhibit human plasma kallikrein activity was determined.

[1] = human plasma kallikrein, Pro-Phe-Arg-AMC substrate, 37° C., read-out: hPK IC50

Chain of human Plasma Kallikrein (P03952 20-638): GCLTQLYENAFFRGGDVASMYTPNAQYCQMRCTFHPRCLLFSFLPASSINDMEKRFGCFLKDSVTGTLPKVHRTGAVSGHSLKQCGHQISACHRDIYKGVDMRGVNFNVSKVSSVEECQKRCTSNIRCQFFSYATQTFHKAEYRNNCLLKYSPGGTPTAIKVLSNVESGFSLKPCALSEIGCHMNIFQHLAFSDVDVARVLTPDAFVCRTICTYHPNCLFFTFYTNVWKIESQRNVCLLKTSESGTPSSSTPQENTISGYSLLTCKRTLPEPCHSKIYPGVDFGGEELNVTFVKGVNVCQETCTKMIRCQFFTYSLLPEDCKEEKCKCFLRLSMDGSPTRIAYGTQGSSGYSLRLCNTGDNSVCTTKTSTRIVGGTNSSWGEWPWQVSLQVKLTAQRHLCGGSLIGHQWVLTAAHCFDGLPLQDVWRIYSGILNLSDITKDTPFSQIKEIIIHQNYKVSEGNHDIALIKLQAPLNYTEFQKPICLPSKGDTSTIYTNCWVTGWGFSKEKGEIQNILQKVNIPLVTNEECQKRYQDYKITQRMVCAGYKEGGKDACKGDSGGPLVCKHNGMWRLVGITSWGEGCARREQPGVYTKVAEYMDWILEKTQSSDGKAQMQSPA

For NC(=O)c1ccc2cc(Cc3cc(C(=O)NCc4cc5c(Cl)c[nH]c5cc4F)ccn3)ccc2n1 [Example 1, 6-((4-(((3-chloro-6-fluoro-1H-indol-5-yl)methyl)carbamoyl)pyridin-2-yl)methyl)quinoline-2-carboxamide], the IC50 [1] was 0.1 to 1 µM.

Work on Cc1cc(N)nc(C)c1CNC(=O)c1ccnc(Cc2ccc3nc(C(N)=O)ccc3c2)c1 [Example 2, 6-((4-(((6-amino-2,4-dimethylpyridin-3-yl)methyl)carbamoyl)pyridin-2-yl)methyl)quinoline-2-carboxamide] yielded an IC50 [1] of 0.1 to 1 µM.

In the case of N#Cc1ccc2cc(Cc3cc(C(=O)NCc4ccc5c(N)nccc5c4)ccn3)ccc2n1 [Example 3, N-((1-aminoisoquinolin-6-yl)methyl)-2-((2-cyanoquinolin-6-yl)methyl)isonicotinamide], the IC50 [1] is reported as < 0.1 µM.

NC(=O)c1ccc2cc(Cc3cc(C(=O)NCc4ccc5c(N)nccc5c4)ccn3)ccc2n1 [Example 4] showed an IC50 [1] of 0.1 to 1 µM.

With N#Cc1cnc2ccc(Cc3cc(C(=O)NCc4cc5c(Cl)c[nH]c5cc4F)ccn3)cc2c1 [Example 5, N-((3-chloro-6-fluoro-1H-indol-5-yl)methyl)-2-((3-cyanoquinolin-6-yl)methyl)isonicotinamide] the IC50 [1] was < 0.1 µM.

With N#Cc1cnc2ccc(Cc3cc(C(=O)NCc4ccc5c(N)nccc5c4)ccn3)cc2c1 [Example 6, N-((1-aminoisoquinolin-6-yl)methyl)-2-((3-cyanoquinolin-6-yl)methyl)isonicotinamide] the IC50 [1] was < 0.1 µM.

In the case of Cc1cc(N)nc(C)c1CNC(=O)c1ccnc(Cc2ccc3ncc(C#N)cc3c2)c1 [Example 7, N-((6-amino-2,4-dimethylpyridin-3-yl)methyl)-2-((3-cyanoquinolin-6-yl)methyl)isonicotinamide], the IC50 [1] is reported as < 0.1 µM.

In the case of Nc1nccc2cc(CNC(=O)c3ccnc(Cc4cnc5ccc(F)cc5n4)c3)ccc12 [Example 8, N-((1-aminoisoquinolin-6-yl)methyl)-2-((7-fluoroquinoxalin-2-yl)methyl)isonicotinamide], the IC50 [1] is reported as 0.1 to 1 µM.

CC(=O)NCc1ccc2cc(Cc3cc(C(=O)NCc4cc5c(Cl)c[nH]c5cc4F)ccn3)ccc2n1 [Example 9, 2-[2-(acetylamino-methyl)-quinolin-6-ylmethyl]-N-(3-chloro-6-fluoro-1H-indol-5-ylmethyl)-isonicotinamide] showed an IC50 [1] of 0.1 to 1 µM.

CC(=O)NCc1ccc2cc(Cc3cc(C(=O)NCc4ccc5c(N)nccc5c4)ccn3)ccc2n1 [Example 10, 2-[2-(acetylamino-methyl)-quinolin-6-ylmethyl]-N-(1-amino-isoquinolin-6-ylmethyl)-isonicotinamide] gave an IC50 [1] of 0.1 to 1 µM.

In the case of CC(=O)NCc1ccc2cc(Cc3cc(C(=O)NCc4c(C)cc(N)nc4C)ccn3)ccc2n1 [Example 11, 2-[2-(acetylamino-methyl)-quinolin-6-ylmethyl]-N-(6-amino-2,4-dimethyl-pyridin-3-ylmethyl)-isonicotinamide], the IC50 [1] is reported as 0.1 to 1 µM.

With CS(=O)(=O)c1ccc2ncc(Cc3cc(C(=O)NCc4cc5c(Cl)c[nH]c5cc4F)ccn3)cc2c1 [Example 12, N-((3-chloro-6-fluoro-1H-indol-5-yl)methyl)-2-((6-(methylsulfonyl)quinolin-3-yl)methyl)isonicotinamide] the IC50 [1] was < 0.1 µM.

With CS(=O)(=O)c1ccc2ncc(Cc3cc(C(=O)NCc4ccc5c(N)nccc5c4)ccn3)cc2c1 [Example 13, N-((1-aminoisoquinolin-6-yl)methyl)-2-((6-(methylsulfonyl)quinolin-3-yl)methyl)isonicotinamide] the IC50 [1] was 0.1 to 1 µM.

With Cc1cc(N)nc(C)c1CNC(=O)c1ccnc(Cc2cnc3ccc(S(C)(=O)=O)cc3c2)c1 [Example 14, N-((6-amino-2,4-dimethylpyridin-3-yl)methyl)-2-((6-(methylsulfonyl)quinolin-3-yl)methyl)isonicotinamide] the IC50 [1] was 0.1 to 1 µM.

Cc1cc(N)nc(C)c1CNC(=O)c1ccnc(Cn2ccc3c(Cl)cccc3c2=O)c1 [Example 22, N-(6-Amino-2,4-dimethyl-pyridin-3-ylmethyl)-2-(5-chloro-1-oxo-1H-isoquinolin-2-ylmethyl)-isonicotinamide] was tested, and the IC50 was 0.1 to 1 µM.

Cc1cc(N)nc(C)c1CNC(=O)c1ccnc(Cn2ccc3cc(Cl)ccc3c2=O)c1 [Example 23, N-((6-amino-2,4-dimethylpyridin-3-yl)methyl)-2-((6-chloro-1-oxoisoquinolin-2(1H)-yl)methyl)isonicotinamide] was tested, and the IC50 [1] was 1 to 10 µM.

Compound Cc1cc(N)nc(C)c1CNC(=O)c1ccnc(Cc2ccc3[nH]cc(Cl)c3c2)c1 [Example 24, N-((6-amino-2,4-dimethylpyridin-3-yl)methyl)-2-((3-chloro-1H-indol-5-yl)methyl)isonicotinamide] has an IC50 [1] of 0.1 to 1 µM.

Cc1cc(N)nc(C)c1CNC(=O)c1ccnc(Cc2ccc3[nH]cc(C)c3c2)c1 [Example 25, N-((6-amino-2,4-dimethylpyridin-3-yl)methyl)-2-((3-methyl-1H-indol-5-yl)methyl)isonicotinamide] was tested, and the IC50 [1] was 0.1 to 1 µM.

With Cc1nc(N)c(C#N)cc1CNC(=O)c1ccnc(Cc2ccc3ncc(Cl)cc3c2)c1 [Example 26, N-((6-amino-5-cyano-2-methylpyridin-3-yl)methyl)-2-((3-chloroquinolin-6-yl)methyl)isonicotinamide] the IC50 [1] was 1 to 10 µM.

For Cc1nc(N)c(C(N)=O)cc1CNC(=O)c1ccnc(Cc2ccc3ncc(Cl)cc3c2)c1 [Example 27, 2-amino-5-((2-((3-chloroquinolin-6-yl)methyl)isonicotinamido)methyl)-6-methylnicotinamide], the IC50 [1] was > 10 µM.

In the case of Cc1nc(N)c(Cl)cc1CNC(=O)c1ccnc(Cc2ccc3ncc(Cl)cc3c2)c1 [Example 28, N-((6-amino-5-chloro-2-methylpyridin-3-yl)methyl)-2-((3-chloroquinolin-6-yl)methyl)isonicotinamide], the IC50 [1] is reported as 1 to 10 µM.

With Cc1cc(N)ncc1CNC(=O)c1ccnc(Cc2ccc3ncc(Cl)cc3c2)c1 [Example 29, N-((6-amino-4-methylpyridin-3-yl)methyl)-2-((3-chloroquinolin-6-yl)methyl)isonicotinamide] the IC50 [1] was < 0.1 µM.

With Nc1ccc(CNC(=O)c2ccnc(Cc3ccc4ncc(Cl)cc4c3)c2)c(C(F)(F)F)n1 [Example 30, N-((6-amino-2-(trifluoromethyl)pyridin-3-yl)methyl)-2-((3-chloroquinolin-6-yl)methyl)isonicotinamide] the IC50 [1] was > 10 µM.

For O=C(NCc1cc2cn[nH]c2cc1F)c1ccnc(Cc2ccc3ncc(Cl)cc3c2)c1 [Example 32, 2-(3-chloro-quinolin-6-ylmethyl)-N-(6-fluoro-1H-indazol-5-ylmethyl)-isonicotinamide], the IC50 [1] was 1 to 10 µM.

In the case of Nc1noc2cc(CNC(=O)c3ccnc(Cc4ccc5ncc(Cl)cc5c4)c3)ccc12 [Example 36, N-((3-aminobenzo[d]isoxazol-6-yl)methyl)-2-((3-chloroquinolin-6-yl)methyl)isonicotinamide], the IC50 [1] is reported as 1 to 10 µM.

For O=C(NCc1n[nH]c2ccc(Cl)cc12)c1ccnc(Cc2ccc3ncc(Cl)cc3c2)c1 [Example 37, N-(5-chloro-1H-indazol-3-ylmethyl)-2-(3-chloro-quinolin-6-ylmethyl)-isonicotinamide], the IC50 [1] was < 0.1 µM.

In the case of O=C(NCc1cc2cc[nH]c2cc1F)c1ccnc(Cc2ccc3ncc(Cl)cc3c2)c1 [Example 41, 2-(3-chloro-quinolin-6-ylmethyl)-N-(6-fluoro-1H-indol-5-ylmethyl)-isonicotinamide], the IC50 [1] is reported as < 0.1 µM.

Compound CNc1ccc(CNC(=O)c2ccnc(Cc3ccc4ncc(Cl)cc4c3)c2)c(C)n1 [Example 42, 2-((3-chloroquinolin-6-yl)methyl)-N-((2-methyl-6-(methylamino)pyridin-3-yl)methyl)isonicotinamide] has an IC50 [1] of 0.1 to 1 µM.

Work on Nc1ccc(CNC(=O)c2ccnc(Cc3ccc4ncc(Cl)cc4c3)c2)c(C2CC2)n1 [Example 43, N-((6-amino-2-cyclopropylpyridin-3-yl)methyl)-2-((3-chloroquinolin-6-yl)methyl)isonicotinamide] yielded an IC50 [1] of 0.1 to 1 µM.

In the case of Cc1nc(N(C)C)ccc1CNC(=O)c1ccnc(Cc2ccc3ncc(Cl)cc3c2)c1 [Example 44, 2-((3-chloroquinolin-6-yl)methyl)-N-((6-(dimethylamino)-2-methylpyridin-3-yl)methyl)isonicotinamide], the IC50 [1] is reported as > 10 µM.

NCc1ccc2cc(Cc3cc(C(=O)NCc4cc5c(Cl)c[nH]c5cc4F)ccn3)ccc2n1 [Example 45, 2-((2-(aminomethyl)quinolin-6-yl)methyl)-N-((3-chloro-6-fluoro-1H-indol-5-yl)methyl)isonicotinamide] showed an IC50 [1] of 0.1 to 1 µM.

In the case of Cc1cc(N)nc(C)c1CNC(=O)c1ccnc(Cc2ccc3nc(CN)ccc3c2)c1 [Example 46, N-((6-amino-2,4-dimethylpyridin-3-yl)methyl)-2-((2-(aminomethyl)quinolin-6-yl)methyl)isonicotinamide], the IC50 [1] is reported as < 0.1 µM.

Cc1cnc2ccc(Cc3cc(C(=O)NCc4ccc5c(N)noc5c4)ccn3)cc2c1 [Example 47, N-((3-aminobenzo[d]isoxazol-6-yl)methyl)-2-((3-methylquinolin-6-yl)methyl)isonicotinamide] gave an IC50 [1] of 1 to 10 µM.

Cc1ccc2ncc(Cc3cc(C(=O)NCc4ccc5c(N)noc5c4)ccn3)cc2c1 [Example 48, N-((3-aminobenzo[d]isoxazol-6-yl)methyl)-2-((6-methylquinolin-3-yl)methyl)isonicotinamide] was tested, and the IC50 [1] was > 10 µM.

With N#Cc1cc(Cc2cc(C(=O)NCc3cc4c(Cl)c[nH]c4cc3F)ccn2)cc2cc(Cl)cnc12 [Example 49, N-((3-chloro-6-fluoro-1H-indol-5-yl)methyl)-2-((3-chloro-8-cyanoquinolin-6-yl)methyl)isonicotinamide] the IC50 [1] was < 0.1 µM.

— US9611252B2 (LifeSci Pharmaceuticals, Inc., priority 2013, dated 2017)
